Measurements reported in ChEMBL document CHEMBL2429770, “Development of Mycobacterium tuberculosis whole cell screening hits as potential antituberculosis agents” (J Med Chem, 2013).

What was measured:
[1] = system: Mycobacterium tuberculosis; experiment: Antimycobacterial activity against Mycobacterium tuberculosis H37Rv; assay type: functional
[2] = Inhibition of Mycobacterium tuberculosis PtpB

Row | Compound | MIC [1] | Ki [2] [nM]
1 | Cc1sc(N)nc1C(=O)O | 0.06 µg/mL | –
2 | COC(=O)c1nc(N)sc1Cc1ccccc1 | 0.06 µg/mL | –
3 | c1cc2c(s1)CCOC21CCN(Cc2ccc3c(c2)OCCO3)CC1 | 0.38 µM | –
4 | Cc1cccc(-c2nc(Nc3ccncn3)c3c(C)csc3n2)n1 | 0.76 µM | –
5 | CCc1ccc([C@@H]2C[C@H](C(F)(F)F)n3ncc(C(=O)NCc4ccc(OC)cc4)c3N2)cc1 | 0.25 µM | –
6 | COc1ccc2nc(C)cc(OCC(=O)Nc3ccccc3OC)c2c1 | 0.7 µM | –
7 | COc1ccc(CCNc2cc(-c3ccccc3)nc3ncnn23)cc1 | 0.94 µM | –
8 | O=P(O)(O)C(F)(F)c1ccc(-c2ccc(F)c(C(F)(F)F)c2)cc1C1CCCCC1 | – | 690
9 | O=C(O)c1cc(-c2ccc(-c3ccc(F)c(C(F)(F)F)c3)cc2C2CCCCC2)on1 | – | 220
10 | O=C(NC12CC3CC(CC(C3)C1)C2)c1cc2cc(Cl)ccc2[nH]1 | 0.47 µM | –
11 | Cc1ccc2nc(C)c(C(=O)NCc3cccs3)n2c1 | 0.19 µM | –
12 | CCCCCCCCCCN1CCCC(O/N=C2\[C@H](C)C[C@@](C)(OC)[C@H](O[C@@H]3O[C@H](C)C[C@H](N(C)C)[C@H]3O)[C@@H](C)C(=O)[C@@H](C)C(=O)O[C@H](CC)[C@@](C)(O)[C@H](O)[C@H]2C)C1 (some centres not stated) | 0.125 µM | –
